Columns and labels:
[1] = system: pooled phosphopeptide:BSA conjugates (Pools A-D); assay: Coded multiplex phosphopeptide binding assay with pooled peptide:BSA conjugates on 4 spots; conditions: for ECL signal, spot A: Pool A, EGFR-pTyr1148, IkBa-24ppC, Myc-p58Tp62S; for ECL signal, spot B: Pool B, EGFR-pTyr992, EGFR-pTyr1148, Smad3C; for ECL signal, spot C: Pool C, EGFR-pTyr1068, IkBa-24ppC, Smad3C; for ECL signal, spot D: Pool D, EGFR-pTyr992, EGFR-pTyr1068, Myc-p58Tp62S
Text: To prepare the Multi-Spot IPR plates, in this example we made use of pools of the peptide:BSA conjugates to coat each of 4 spots per well in a 96 well plate. To achieve this we made the following pools; • Pool A; EGFR-pTyr1148, IkBa-24ppC, Myc-p58Tp62S. • Pool B; EGFR-pTyr992, EGFR-pTyr1148, Smad3C. • Pool C; EGFR-pTyr1068, IkBa-24ppC, Smad3C. • Pool D; EGFR-pTyr992, EGFR-pTyr1068, Myc-p58Tp62S.
This combination of the various peptides results in any single peptide being present in two pools. Each of these four pools is then spotted on to a unique spot in a 4 spot array. In this way any single binding protein with specificity for only one of the peptides would bind to two spots; the identity of the two spots would allow the identification of the peptide involved in the binding reaction.
Typically approximately 120 fmole of peptide:BSA conjugate in 0.25 μl was deposited on each spot of a 4-spot multi-array IPR plates using a BioDot Dispenser (Bio-Dot Inc., vIrvine Calif.). At this stage, the plates were dried then used or stored under desiccated condition. A few hours prior to usage, the plates were rehydrated and blocked with 3% BSA, in PBS.
To test the system the following EST clones IMAGE # 3491843, 4237375, 4398016, 4419252, 3872466, 3907115 were obtained. These clones express the following genes βTRCP1, βTRCP2, Grb2, PLCγ, CBP and Shc1, respectively. […] These DNAs were used to produce proteins as described in the Materials and Methods. Proteins were transferred to a well of the 4 spot peptide-coated and BSA blocked ECL plates. The binding assay (using Sulfo-TAG labeled streptavidin as a detection agent) was carried our according to the procedures described in Example 11.

Epha7 = biological target: T1, Epha7 (Mus musculus, UniProt Q61772); assay: Kinase inhibitor profiling, autophosphorylation; assay type: biochemical
T1 construct: autophosphorylation activity from full-length clones Spleen Tyrosine Kinase (SYK) and Eph receptor-A7 (EphA7); host or cells: rabbit reticulocyte lysate, TnT coupled in vitro transcription/translation (cell-free)
T1 sequence (Q61772 28-998): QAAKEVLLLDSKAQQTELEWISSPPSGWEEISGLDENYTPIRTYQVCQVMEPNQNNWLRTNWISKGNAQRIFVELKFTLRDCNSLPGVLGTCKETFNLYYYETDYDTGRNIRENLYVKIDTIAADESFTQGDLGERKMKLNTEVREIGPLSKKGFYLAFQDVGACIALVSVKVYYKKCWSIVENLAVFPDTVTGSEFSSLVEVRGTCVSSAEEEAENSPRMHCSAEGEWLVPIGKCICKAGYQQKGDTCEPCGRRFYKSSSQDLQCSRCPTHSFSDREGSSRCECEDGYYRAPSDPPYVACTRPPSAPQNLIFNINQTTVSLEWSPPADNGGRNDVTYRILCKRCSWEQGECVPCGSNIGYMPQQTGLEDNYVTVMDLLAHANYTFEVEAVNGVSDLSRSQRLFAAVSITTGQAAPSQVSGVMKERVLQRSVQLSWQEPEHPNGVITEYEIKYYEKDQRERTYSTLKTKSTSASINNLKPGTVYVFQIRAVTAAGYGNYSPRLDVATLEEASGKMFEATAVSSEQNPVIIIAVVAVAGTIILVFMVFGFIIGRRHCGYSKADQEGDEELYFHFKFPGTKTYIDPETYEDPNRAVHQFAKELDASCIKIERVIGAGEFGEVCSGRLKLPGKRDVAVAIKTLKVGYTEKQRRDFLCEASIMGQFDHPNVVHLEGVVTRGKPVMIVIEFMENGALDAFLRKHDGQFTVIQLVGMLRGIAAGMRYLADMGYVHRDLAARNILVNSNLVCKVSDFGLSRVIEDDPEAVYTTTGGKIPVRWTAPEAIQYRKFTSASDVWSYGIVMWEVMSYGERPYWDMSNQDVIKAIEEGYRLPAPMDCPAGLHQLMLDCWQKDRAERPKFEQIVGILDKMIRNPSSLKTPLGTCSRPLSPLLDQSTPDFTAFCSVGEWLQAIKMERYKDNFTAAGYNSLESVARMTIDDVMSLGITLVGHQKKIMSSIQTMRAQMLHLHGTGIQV

Code (pattern of positive spots) [1] | Peptide determined from code [1] | ECL signal, spot A [1] | ECL signal, spot B [1] | ECL signal, spot C [1] | ECL signal, spot D [1] | Molecule | Inhibition specificity towards Autophosphorylation at 10X IC50, Epha7 (Epha7)
A, C | IkBa-24ppC | 9536 | 208 | 11184 | 171 | 3491843: IMAGE clone protein: βTRCP1 [compound 3491843] | 
Neg. | Negative | 19 | 30 | 22 | 15 | 3872466: IMAGE clone protein: mCBP [compound 3872466] | 
 |  |  |  |  |  | Cc1cc2ncc(-c3ccc(O)c(O)c3)nc2cc1C [AG-1433] | H (high inhibition (“H”=less than 25% of the activity remaining))
 |  |  |  |  |  | COc1c(C=O)c(O)cc2c1C(=O)c1ccccc1C2=O [Damnacanthal] | H (high inhibition (“H”=less than 25% of the activity remaining))
